Experimental data from patent US9738902B2, “Modified PYR/PYL receptors activated by ligands” (priority 2013, dated 2017).

Assays:
Experiment in all cases: Y2H Pocket Library Screen (HAB1, X-gal)
Assay type in all cases: cell-based
PYR1 K59R A160I = biological target: T1, PYR1 K59R A160I (Arabidopsis thaliana, UniProt O49686, A160I/K59R)
T1 construct: expressed in transfected cells; host or cells: S. cerevisiae Y190
Summary of the method: (§1)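 Y190 yeast co-expressing PYR1 mutants and HAB1 were grown two days at 30 °C on Leu/Trp-minus selective plates with 100 μM test compound. Responsiveness was scored by X-gal staining for β-galactosidase after chloroform lysis.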

PYR1 K59R A160N = biological target: T2, PYR1 K59R A160N (Arabidopsis thaliana, UniProt O49686, A160N/K59R)
T2 construct: expressed in transfected cells; host or cells: S. cerevisiae Y190
Summary of the method: as §1

PYR1 K59R A160V = biological target: T3, PYR1 K59R A160V (Arabidopsis thaliana, UniProt O49686, A160V/K59R)
T3 construct: expressed in transfected cells; host or cells: S. cerevisiae Y190
Summary of the method: as §1

PYR1 K59R A160Y = biological target: T4, PYR1 K59R A160Y (Arabidopsis thaliana, UniProt O49686, A160Y/K59R)
T4 construct: expressed in transfected cells; host or cells: S. cerevisiae Y190
Summary of the method: as §1

PYR1 K59R E141F = biological target: T5, PYR1 K59R E141F (Arabidopsis thaliana, UniProt O49686, E141F/K59R)
T5 construct: expressed in transfected cells; host or cells: S. cerevisiae Y190 two-hybrid reporter strain
Summary of the method: as §1

PYR1 K59R E141H = biological target: T6, PYR1 K59R E141H (Arabidopsis thaliana, UniProt O49686, E141H/K59R)
T6 construct: expressed in transfected cells; host or cells: S. cerevisiae Y190 two-hybrid reporter strain
Summary of the method: as §1

PYR1 K59R E141Q = biological target: T7, PYR1 K59R E141Q (Arabidopsis thaliana, UniProt O49686, E141Q/K59R)
T7 construct: expressed in transfected cells; host or cells: S. cerevisiae Y190 two-hybrid reporter strain
T7 sequence (O49686 whole entry K59R/E141Q): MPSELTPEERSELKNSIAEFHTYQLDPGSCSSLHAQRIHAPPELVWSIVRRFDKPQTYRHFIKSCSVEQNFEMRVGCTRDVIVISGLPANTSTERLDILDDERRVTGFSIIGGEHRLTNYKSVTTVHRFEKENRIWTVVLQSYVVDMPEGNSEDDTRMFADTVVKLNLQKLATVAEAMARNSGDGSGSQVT
T7 sequence (Q9CAJ0 23-511 partner): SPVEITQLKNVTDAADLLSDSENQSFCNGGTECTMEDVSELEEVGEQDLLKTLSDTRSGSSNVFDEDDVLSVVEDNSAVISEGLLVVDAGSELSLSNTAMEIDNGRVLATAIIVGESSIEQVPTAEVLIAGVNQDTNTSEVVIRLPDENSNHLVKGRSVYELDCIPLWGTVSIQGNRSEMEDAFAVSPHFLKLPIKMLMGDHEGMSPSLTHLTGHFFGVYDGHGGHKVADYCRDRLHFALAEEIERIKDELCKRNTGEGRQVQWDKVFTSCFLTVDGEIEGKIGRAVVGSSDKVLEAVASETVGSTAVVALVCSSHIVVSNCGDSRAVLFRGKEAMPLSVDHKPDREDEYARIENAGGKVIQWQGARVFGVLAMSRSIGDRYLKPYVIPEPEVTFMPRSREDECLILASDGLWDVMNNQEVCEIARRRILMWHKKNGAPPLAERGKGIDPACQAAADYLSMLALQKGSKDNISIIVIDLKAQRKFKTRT
Summary of the method: as §1

PYR1 K59R E141Y = biological target: T8, PYR1 K59R E141Y (Arabidopsis thaliana, UniProt O49686, E141Y/K59R)
T8 construct: expressed in transfected cells; host or cells: S. cerevisiae Y190 two-hybrid reporter strain
T8 sequence (O49686 whole entry K59R/E141Y): as the sequence (O49686 whole entry K59R/E141Q) above, with Q141Y counted along it
T8 sequence (Q9CAJ0 23-511, further chain): as the sequence (Q9CAJ0 23-511 partner) above
Summary of the method: as §1

PYR1 K59R E94D = biological target: T9, PYR1 K59R E94D (Arabidopsis thaliana, UniProt O49686, E94D/K59R)
T9 construct: expressed in transfected cells; host or cells: S. cerevisiae Y190 yeast two-hybrid reporter strain
Summary of the method: as §1

PYR1 K59R H115N = biological target: T10, PYR1 K59R H115N (Arabidopsis thaliana, UniProt O49686, H115N/K59R)
T10 construct: expressed in transfected cells; host or cells: S. cerevisiae Y190 two-hybrid reporter strain
Summary of the method: as §1

PYR1 K59R M158A = biological target: T11, PYR1 K59R M158A (Arabidopsis thaliana, UniProt O49686, K59R/M158A)
T11 construct: expressed in transfected cells; host or cells: S. cerevisiae Y190 two-hybrid reporter strain
Summary of the method: as §1

PYR1 K59R M158G = biological target: T12, PYR1 K59R M158G (Arabidopsis thaliana, UniProt O49686, K59R/M158G)
T12 construct: expressed in transfected cells; host or cells: S. cerevisiae Y190 two-hybrid reporter strain
Summary of the method: as §1

PYR1 K59R M158I = biological target: T13, PYR1 K59R M158I (Arabidopsis thaliana, UniProt O49686, K59R/M158I)
T13 construct: expressed in transfected cells; host or cells: S. cerevisiae Y190 two-hybrid reporter strain
Summary of the method: as §1

PYR1 K59R M158L = biological target: T14, PYR1 K59R M158L (Arabidopsis thaliana, UniProt O49686, K59R/M158L)
T14 construct: expressed in transfected cells; host or cells: S. cerevisiae Y190 two-hybrid reporter strain
Summary of the method: as §1

PYR1 K59R M158S = biological target: T15, PYR1 K59R M158S (Arabidopsis thaliana, UniProt O49686, K59R/M158S)
T15 construct: expressed in transfected cells; host or cells: S. cerevisiae Y190 two-hybrid reporter strain
T15 sequence (O49686 whole entry K59R/M158S): as the sequence (O49686 whole entry K59R/E141Q) above, with Q141E, M158S counted along it
T15 sequence (Q9CAJ0 23-511 partner): as the sequence (Q9CAJ0 23-511 partner) above
Summary of the method: as §1

PYR1 K59R M158V = biological target: T16, PYR1 K59R M158V (Arabidopsis thaliana, UniProt O49686, K59R/M158V)
T16 construct: expressed in transfected cells; host or cells: S. cerevisiae Y190 two-hybrid reporter strain
T16 sequence (O49686 whole entry K59R/M158V): as the sequence (O49686 whole entry K59R/E141Q) above, with Q141E, M158V counted along it
T16 sequence (Q9CAJ0 23-511, further chain): as the sequence (Q9CAJ0 23-511 partner) above
Summary of the method: as §1

PYR1 K59R N167S = biological target: T17, PYR1 K59R N167S (Arabidopsis thaliana, UniProt O49686, K59R/N167S)
T17 construct: expressed in transfected cells; host or cells: S. cerevisiae Y190 two-hybrid reporter strain
Summary of the method: as §1

PYR1 K59R T162W = biological target: T18, PYR1 K59R T162W (Arabidopsis thaliana, UniProt O49686, K59R/T162W)
T18 construct: expressed in transfected cells; host or cells: S. cerevisiae Y190
Summary of the method: as §1

PYR1 K59R V164E = biological target: T19, PYR1 K59R V164E (Arabidopsis thaliana, UniProt O49686, K59R/V164E)
T19 construct: expressed in transfected cells; host or cells: S. cerevisiae Y190
T19 sequence (O49686 whole entry K59R/V164E): as the sequence (O49686 whole entry K59R/E141Q) above, with Q141E, V164E counted along it
T19 sequence (Q9CAJ0 23-511 partner): as the sequence (Q9CAJ0 23-511 partner) above
Summary of the method: as §1

PYR1 K59R V164H = biological target: T20, PYR1 K59R V164H (Arabidopsis thaliana, UniProt O49686, K59R/V164H)
T20 construct: expressed in transfected cells; host or cells: S. cerevisiae Y190
T20 sequence (O49686 whole entry K59R/V164H): as the sequence (O49686 whole entry K59R/E141Q) above, with Q141E, V164H counted along it
T20 sequence (Q9CAJ0 23-511 partner): as the sequence (Q9CAJ0 23-511 partner) above
Summary of the method: as §1

PYR1 K59R V164K = biological target: T21, PYR1 K59R V164K (Arabidopsis thaliana, UniProt O49686, K59R/V164K)
T21 construct: expressed in transfected cells; host or cells: S. cerevisiae Y190
Summary of the method: as §1

PYR1 K59R V164Y = biological target: T22, PYR1 K59R V164Y (Arabidopsis thaliana, UniProt O49686, K59R/V164Y)
T22 construct: expressed in transfected cells; host or cells: S. cerevisiae Y190 two-hybrid reporter strain
Summary of the method: as §1

PYR1 K59R V83L = biological target: T23, PYR1 K59R V83L (Arabidopsis thaliana, UniProt O49686, K59R/V83L)
T23 construct: expressed in transfected cells; host or cells: S. cerevisiae Y190 yeast two-hybrid reporter strain
T23 sequence (O49686 whole entry K59R/V83L): as the sequence (O49686 whole entry K59R/E141Q) above, with V83L, Q141E counted along it
T23 sequence (Q9CAJ0 23-511, further chain): as the sequence (Q9CAJ0 23-511 partner) above
Summary of the method: as §1

PYR1 K59R F108I = biological target: T24, PYR1 K59R F108I (Arabidopsis thaliana, UniProt O49686, F108I/K59R)
T24 construct: expressed in transfected cells; host or cells: S. cerevisiae Y190 yeast two-hybrid reporter strain
Summary of the method: as §1

PYR1 K59R F108T = biological target: T25, PYR1 K59R F108T (Arabidopsis thaliana, UniProt O49686, F108T/K59R)
T25 construct: expressed in transfected cells; host or cells: S. cerevisiae Y190 yeast two-hybrid reporter strain
Summary of the method: as §1

PYR1 K59R F159C = biological target: T26, PYR1 K59R F159C (Arabidopsis thaliana, UniProt O49686, F159C/K59R)
T26 construct: expressed in transfected cells; host or cells: S. cerevisiae Y190 two-hybrid reporter strain
Summary of the method: as §1

PYR1 K59R F159T = biological target: T27, PYR1 K59R F159T (Arabidopsis thaliana, UniProt O49686, F159T/K59R)
T27 construct: expressed in transfected cells; host or cells: S. cerevisiae Y190
Summary of the method: as §1

PYR1 K59R S122G = biological target: T28, PYR1 K59R S122G (Arabidopsis thaliana, UniProt O49686, K59R/S122G)
T28 construct: expressed in transfected cells; host or cells: S. cerevisiae Y190 two-hybrid reporter strain
Summary of the method: as §1

Measured: Threshold

N#Cc1c(Cl)cccc1Cl [Dichlobenil, dichlobenil]
not listed: PYR1 K59R F108I | PYR1 K59R F108T | PYR1 K59R F159C | PYR1 K59R F159T | PYR1 K59R S122G
100 µM: all other assays above

C#CCOc1ccc(CCNC(=O)C(OCC#C)c2ccc(Cl)cc2)cc1OC (stereo not shown) [Mandipropamid, mandipropamid]
100 µM: PYR1 K59R F108I | PYR1 K59R F108T | PYR1 K59R F159C | PYR1 K59R F159T | PYR1 K59R S122G
